These results are taken from PMC12567244, “Innovative Amino-Functionalization of Pyrido[2,3-d]pyrimidine Scaffolds for Broad Therapeutic Applications Supported by Computational Analyses” (Pharmaceuticals, 2025).

As a reminder, the IC50 is the midpoint of a concentration-inhibition curve. As a reminder, the MIC is the lowest concentration found to suppress growth.

In series [1] the target is T1, mutant EGFRL858R (Homo sapiens, UniProt P00533, L858R). To be noted: for Fold-Change L858R/WT: potency relative to wild-type EGFR.
T1 sequence (P00533 25-1210 L858R): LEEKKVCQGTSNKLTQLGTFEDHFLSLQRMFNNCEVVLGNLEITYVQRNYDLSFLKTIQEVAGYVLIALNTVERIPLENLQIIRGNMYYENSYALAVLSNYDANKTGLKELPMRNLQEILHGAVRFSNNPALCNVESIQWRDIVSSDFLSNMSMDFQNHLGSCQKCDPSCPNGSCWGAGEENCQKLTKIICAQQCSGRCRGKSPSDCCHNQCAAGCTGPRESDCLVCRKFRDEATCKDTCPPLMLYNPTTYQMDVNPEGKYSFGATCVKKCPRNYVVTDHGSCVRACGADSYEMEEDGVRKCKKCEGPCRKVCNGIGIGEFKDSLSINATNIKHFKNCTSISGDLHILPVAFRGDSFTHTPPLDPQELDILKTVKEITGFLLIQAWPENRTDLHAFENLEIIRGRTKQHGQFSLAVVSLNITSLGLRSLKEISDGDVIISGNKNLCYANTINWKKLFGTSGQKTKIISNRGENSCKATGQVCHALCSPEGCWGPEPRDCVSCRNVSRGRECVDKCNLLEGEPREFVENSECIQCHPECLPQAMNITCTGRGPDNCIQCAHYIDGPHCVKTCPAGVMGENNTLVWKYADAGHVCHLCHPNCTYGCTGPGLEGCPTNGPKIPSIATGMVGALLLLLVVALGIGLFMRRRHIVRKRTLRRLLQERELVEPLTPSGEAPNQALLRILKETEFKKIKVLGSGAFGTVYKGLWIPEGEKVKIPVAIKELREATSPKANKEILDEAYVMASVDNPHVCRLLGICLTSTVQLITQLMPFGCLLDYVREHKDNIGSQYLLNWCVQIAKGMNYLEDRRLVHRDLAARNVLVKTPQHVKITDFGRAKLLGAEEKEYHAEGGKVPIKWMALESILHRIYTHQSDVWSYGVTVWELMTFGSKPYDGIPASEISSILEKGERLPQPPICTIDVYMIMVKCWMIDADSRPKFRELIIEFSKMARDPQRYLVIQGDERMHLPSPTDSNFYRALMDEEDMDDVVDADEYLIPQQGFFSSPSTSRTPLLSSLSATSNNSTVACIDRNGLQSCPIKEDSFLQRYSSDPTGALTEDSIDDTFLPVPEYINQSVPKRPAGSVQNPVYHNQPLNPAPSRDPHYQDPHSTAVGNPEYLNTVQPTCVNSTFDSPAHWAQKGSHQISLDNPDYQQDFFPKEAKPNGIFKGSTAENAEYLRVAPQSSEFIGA
For series [2], the system named is P. aeruginosa ATCC10145. The series can be described thus: Well diffusion inhibition zone, P. aeruginosa. Conditions: Pseudomonas aeruginosa, ATCC10145, read-out: Inhibition zone P. aeruginosa ATCC10145. On the technique in general: A growth-free zone around the sample is the usual read-out of agar diffusion tests.
Series [3] concerns the target EGFRWT (Homo sapiens, UniProt P00533). The series can be described thus: HTRF enzyme inhibitory assay, EGFR WT. (In TR-FRET formats the signal depends on donor and acceptor labels being close together.)
Series [4] concerns MCF-7 cells. The series can be described thus: Wound healing (scratch) assay. Format: cell-based, human.
In series [5] the target is T1, mutant EGFRL858R. The series can be described thus: biochemical.
The test system of series [6] is MCF-7 cells. The series can be described thus: Cell cycle analysis by flow cytometry. Conditions: MCF-7, 48 h incubation. The format is cell-based, human.
Series [7] addresses T2, EGFRT790M (Homo sapiens, UniProt P00533, T790M). The series can be described thus: biochemical.
Series [8] has as its system breast carcinoma (MCF-7). The series can be described thus: MTT cytotoxicity assay, MCF-7. Conditions: for SI MCF-7: IC50 WI-38 / IC50 MCF-7; for IC50: read-out: IC50 MCF-7, MTT, mean ± SD of three measurements. (Tetrazolium dyes change colour on reduction, which living cells bring about.)
In series [9] the test system is S. aureus ATCC25923. The series can be described thus: MIC, two-fold serial dilution, S. aureus. Format: cell-based, Staphylococcus aureus. Conditions: for MIC: Staphylococcus aureus, ATCC25923.
Series [10] relates to MCF-7 cells. The series can be described thus: Annexin V-FITC/PI apoptosis analysis. Format: cell-based, human. To be noted: MCF-7, 48 h.
Series [11] relates to cervical carcinoma (HeLa). The series can be described thus: MTT cytotoxicity assay, HeLa. To be noted: for SI HeLa: IC50 WI-38 / IC50 HeLa; for IC50: read-out: IC50 HeLa, MTT, mean ± SD of three measurements.
The test system of series [12] is HeLa, HepG-2, and MCF-7. The series can be described thus: MTT cytotoxicity, range over the cancer cell panel. Conditions: read-out: IC50 across HeLa, HepG-2 and MCF-7; range over all examined cancer cell lines.
Series [13] is described as follows: in vitro. To be noted: human, WI-38 normal lung fibroblast cells.
Series [14] deals with T2, EGFRT790M.
In series [15] the test system is E. faecalis ATCC29212. The series can be described thus: Well diffusion inhibition zone, E. faecalis. Conditions: Enterococcus faecalis, ATCC29212, read-out: Inhibition zone E. faecalis ATCC29212.
Series [16] concerns E. coli ATCC25915. The series can be described thus: MIC, two-fold serial dilution, E. coli. Format: cell-based. Conditions: Escherichia coli.
For series [17], the system named is liver carcinoma (HepG-2). The series can be described thus: MTT cytotoxicity assay, HepG-2. To be noted: for SI HepG-2: IC50 WI-38 / IC50 HepG-2; for IC50: read-out: IC50 HepG-2, MTT, mean ± SD of three measurements.
Series [18] concerns P. aeruginosa ATCC10145. The series can be described thus: MIC, two-fold serial dilution, P. aeruginosa. The format is cell-based. To be noted: Pseudomonas aeruginosa.
Series [19] has as its system E. faecalis ATCC29212. The series can be described thus: MIC, two-fold serial dilution, E. faecalis. The format is cell-based, Enterococcus faecalis. To be noted: for MIC: Enterococcus faecalis, ATCC29212.
The test system of series [20] is E.coli ATCC25915. The series can be described thus: Well diffusion inhibition zone, E. coli. To be noted: Escherichia coli, ATCC25915, read-out: Inhibition zone E.coli ATCC25915.
The subject of series [21] is S. aureus ATCC25923. The series can be described thus: Well diffusion inhibition zone, S. aureus. To be noted: Staphylococcus aureus, ATCC25923, read-out: Inhibition zone S. aureus ATCC25923.

Structures are written as SMILES. ≈ marks a conversion by molar mass, not a printed value. Where “and” joins values, the source holds several entries; their conditions need not be identical. Identical values can stand only once. Like-named read-outs stand apart in the source and are kept apart here. Bounds are passed on as bounds.

EGFRWT, sequence (P00533 25-1210): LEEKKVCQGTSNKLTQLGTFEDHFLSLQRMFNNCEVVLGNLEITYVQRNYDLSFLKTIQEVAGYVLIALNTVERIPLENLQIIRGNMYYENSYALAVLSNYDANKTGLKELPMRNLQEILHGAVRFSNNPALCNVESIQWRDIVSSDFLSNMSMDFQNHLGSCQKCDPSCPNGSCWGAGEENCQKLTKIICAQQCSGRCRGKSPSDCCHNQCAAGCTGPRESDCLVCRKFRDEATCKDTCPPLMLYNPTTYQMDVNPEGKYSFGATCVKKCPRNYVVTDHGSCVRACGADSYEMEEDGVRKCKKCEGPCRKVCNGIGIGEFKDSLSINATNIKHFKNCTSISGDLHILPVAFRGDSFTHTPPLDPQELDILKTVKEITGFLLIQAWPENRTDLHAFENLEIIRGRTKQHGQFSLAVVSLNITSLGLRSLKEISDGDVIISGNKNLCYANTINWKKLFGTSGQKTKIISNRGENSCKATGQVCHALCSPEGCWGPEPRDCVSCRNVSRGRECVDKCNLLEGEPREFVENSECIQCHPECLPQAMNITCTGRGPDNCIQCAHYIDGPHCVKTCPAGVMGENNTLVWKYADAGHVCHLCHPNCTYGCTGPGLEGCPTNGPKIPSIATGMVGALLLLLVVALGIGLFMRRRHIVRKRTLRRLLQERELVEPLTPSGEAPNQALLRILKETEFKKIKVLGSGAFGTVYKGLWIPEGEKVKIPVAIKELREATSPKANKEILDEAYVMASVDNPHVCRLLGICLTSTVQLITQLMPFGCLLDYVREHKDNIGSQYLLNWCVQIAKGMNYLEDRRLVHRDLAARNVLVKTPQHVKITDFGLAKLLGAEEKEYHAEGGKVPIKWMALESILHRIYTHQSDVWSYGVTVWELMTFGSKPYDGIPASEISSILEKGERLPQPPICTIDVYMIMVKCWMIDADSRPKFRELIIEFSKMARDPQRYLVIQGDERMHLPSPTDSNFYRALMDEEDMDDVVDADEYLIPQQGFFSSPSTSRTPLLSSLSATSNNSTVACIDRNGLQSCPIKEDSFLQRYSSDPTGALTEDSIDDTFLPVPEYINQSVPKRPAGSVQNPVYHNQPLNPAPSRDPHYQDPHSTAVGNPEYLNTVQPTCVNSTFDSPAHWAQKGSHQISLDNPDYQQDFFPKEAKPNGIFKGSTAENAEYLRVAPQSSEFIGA
T2 sequence (P00533 25-1210 T790M): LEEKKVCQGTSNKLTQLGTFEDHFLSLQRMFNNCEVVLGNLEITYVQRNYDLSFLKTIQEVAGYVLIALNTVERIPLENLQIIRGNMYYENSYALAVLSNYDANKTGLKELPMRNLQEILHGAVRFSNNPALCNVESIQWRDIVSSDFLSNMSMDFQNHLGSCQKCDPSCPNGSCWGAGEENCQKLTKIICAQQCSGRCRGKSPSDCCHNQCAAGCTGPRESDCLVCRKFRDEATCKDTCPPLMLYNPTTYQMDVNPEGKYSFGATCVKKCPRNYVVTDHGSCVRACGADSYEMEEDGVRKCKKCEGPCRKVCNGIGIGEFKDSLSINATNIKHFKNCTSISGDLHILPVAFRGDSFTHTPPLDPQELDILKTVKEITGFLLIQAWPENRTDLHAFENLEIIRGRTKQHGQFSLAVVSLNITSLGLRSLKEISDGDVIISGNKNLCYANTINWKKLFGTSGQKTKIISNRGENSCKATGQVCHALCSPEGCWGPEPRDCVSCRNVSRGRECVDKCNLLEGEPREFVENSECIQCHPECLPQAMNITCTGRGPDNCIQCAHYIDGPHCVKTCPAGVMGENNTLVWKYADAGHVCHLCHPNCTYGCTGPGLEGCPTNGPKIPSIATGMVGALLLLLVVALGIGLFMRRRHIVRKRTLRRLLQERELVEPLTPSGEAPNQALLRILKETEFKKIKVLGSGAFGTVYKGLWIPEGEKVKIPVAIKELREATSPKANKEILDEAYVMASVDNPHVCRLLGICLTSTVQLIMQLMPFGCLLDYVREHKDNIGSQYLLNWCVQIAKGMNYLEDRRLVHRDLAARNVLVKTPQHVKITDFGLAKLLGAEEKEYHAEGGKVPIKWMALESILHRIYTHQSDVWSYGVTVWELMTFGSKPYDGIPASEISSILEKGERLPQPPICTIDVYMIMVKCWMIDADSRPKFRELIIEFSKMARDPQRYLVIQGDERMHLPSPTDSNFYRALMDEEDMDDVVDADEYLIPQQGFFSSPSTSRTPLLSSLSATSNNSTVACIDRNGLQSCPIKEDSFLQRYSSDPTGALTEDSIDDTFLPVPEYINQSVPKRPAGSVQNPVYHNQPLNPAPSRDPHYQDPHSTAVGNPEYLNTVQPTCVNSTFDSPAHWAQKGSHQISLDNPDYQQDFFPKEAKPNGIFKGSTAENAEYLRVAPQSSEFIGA

Regarding `CCOC(=O)c1c(N)nc2c(c1-c1ccc(Cl)cc1)c(=O)n(C)c(=O)n2C` [Compound 1, Ethyl 7-amino-5-(4-chlorophenyl)-1,3-dimethyl-2,4-dioxo-1,2,3,4-tetrahydropyrido[2,3-d]pyrimidine-6-carboxylate], the “%inh EGFR_L858R” value was 9.88% in [1] (conc 0.01); 23.7% in [1] (conc 0.1); 40% in [1] (conc 1); 75.6% in series [1] (conc 10); 93.7% in series [1] (conc 100). Further, the “Fold-Change L858R/WT” value in [1] was 12 × and 12.44×. The zone of inhibition at 100 µg/mL in series [2] turned out to be 10.5 ± 0.05 mm; in series [15], 2 ± 0.05 mm; in series [20], 9.5 ± 0.12 mm. In addition, the IC50 in series [3] is 0.093 ± 0.003 µM; in series [5], 1.16 ± 0.036 µM; in series [7] it was 0.174 ± 0.006 µM; in series [8] it was 3.98 ± 0.2 µM; in [11] it was 6.29 ± 0.5 µM; in [12], 3.98 to 6.29 µM. For the same compound, the half-maximal inhibitory concentration (IC50) in [17] was determined as 5.9 ± 0.3 µM. Further, the “%inh EGFR WT” value in series [3] (conc 0.01) turned out to be 29.6%; in [3] (conc 0.1), 51%; in series [3] (conc 1) it was 74.5%; in series [3] (conc 10) it was 85.3%; in [3] (conc 100), 96.1%. Moreover, the Length of migration in series [4] (MCF-7, 72 h) is listed as 0.31–0.32 mm; in series [4] (MCF-7, 72 h, listed as U1), 0.31 mm. The Migrated cells area in series [4] (MCF-7, 72 h) is given as 0.564 mm^2. For the same compound, the “% Closure (wound closure)” value in series [4] (MCF-7, after 72 h) was 69.63% and 69.63 ± 2.57%. Moreover, in series [6], the “%G0-G1” value is reported as 74.86%. Besides, the “%G2/M” value in [6] is reported as 1.75%. Moreover, the “%S” value in series [6] is 22.79%. Besides, the “SI MCF-7” value in series [8] came to 20.51. Also, the MIC in [9] amounted to 100 µg/mL (≈ 257 µM); in series [16], 50 µg/mL (≈ 129 µM); in series [18], 50 µg/mL (≈ 129 µM); in [19], 100 µg/mL (≈ 257 µM). The “Apoptosis Early” value in series [10] is reported as 5.86%. For the same compound, the “Apoptosis Late” value in series [10] is 16.62%. The “Apoptosis Total” value in series [10] is on record as 26.37%. The same compound showed a Necrosis in [10] of 3.89%. Further, in series [11], the “SI HeLa” value turned out to be 12.98. In series [13], the IC50 at 48 h worked out at 81.7 ± 4.1 µM. The “%inh EGFR_T790M” value in series [14] (conc 0.01) is given as 22.1%; in series [14] (conc 0.1) it was 51.1%; in series [14] (conc 1), 66.5%; in series [14] (conc 10), 82.2%; in [14] (conc 100) it was 96.1%. For the same compound, the “SI HepG-2” value in series [17] stood at 13.83.

Take `Cn1c(=O)c2c(-c3ccc(Cl)cc3)c(C(=O)NN)c(N)nc2n(C)c1=O` [Compound 2, 7-Amino-5-(4-chlorophenyl)-1,3-dimethyl-2,4-dioxo-1,2,3,4-tetrahydropyrido[2,3-d]pyrimidine 6-carbohydrazide]: the “%inh EGFR_L858R” value in [1] (conc 0.01) was determined as 6.07%; in series [1] (conc 0.1), 19%; in [1] (conc 1), 43.5%; in [1] (conc 10), 68.3%; in series [1] (conc 100), 90.7%. In series [1], the “Fold-Change L858R/WT” value was 7.5 × and 7.56×. Also, the IC50 was 0.212 ± 0.007 µM in series [3]; 1.6 ± 0.05 µM in series [5]; 0.854 ± 0.027 µM in [7]; 8.61 ± 0.6 µM in [8]; 7.54 ± 0.7 µM in [11]; 7.54 to 12.9 µM in series [12]. Besides, in series [17], the IC50 was 12.9 ± 1 µM. In addition, the “%inh EGFR WT” value in series [3] (conc 0.01) worked out at 24.6%; in series [3] (conc 0.1) it was 42.5%; in series [3] (conc 1) it was 67.1%; in series [3] (conc 10), 81.4%; in series [3] (conc 100), 94.6%. Moreover, the “SI MCF-7” value in series [8] worked out at 7.44. Further, the “SI HeLa” value in [11] came to 8.6. The compound further yielded an IC50 at 48 h in series [13] of 64.1 ± 3.5 µM. The “Fold-Change T790M/WT” value in series [14] (potency relative to wild-type EGFR) is 4.03×. In series [17], the “SI HepG-2” value was 4.95.

Turning to `Cn1c(=O)c2c(-c3ccc(Cl)cc3)c(C3=NN=C4N=CN=C(N)C43)c(N)nc2n(C)c1=O` (centres unmarked) [Compound 12, 7-Amino-6-(4-amino-3aH-pyrazolo [3,4-d]pyrimidin-3-yl)-5-(4-chlorophenyl)-1,3-dimethylpyrido[2,3-d]pyrimidine-2,4(1H,3H)-dione], the results for the zone of inhibition at 100 µg/mL in series [2], in series [15] and in [20] were 10.5 mm, 2 ± 0.05 mm and 10.4 ± 0.08 mm, respectively. The “SI MCF-7” value in series [8] is listed as 0.31. Moreover, the IC50 in [8] turned out to be 58.8 ± 3.3 µM; in series [11] it was 44.2 ± 2.6 µM; in series [17], 54.3 ± 3.2 µM. Also, in [9], the “MIC S. aureus ATCC25923” value was above 100 µg/mL. For the same compound, the MIC is above 100 µg/mL in series [9], 50 µg/mL (≈ 111 µM) in [16], 50 µg/mL (≈ 111 µM) in series [18] and 100 µg/mL (≈ 222 µM) in series [19]. Moreover, the “SI HeLa” value in series [11] is given as 0.41. Further, in series [13], the midpoint of inhibition, the IC50 at 48 h, lay at 18.2 ± 1.4 µM. Moreover, the “%inh EGFR_T790M” value in [14] (conc 0.01) is 6.2%; in [14] (conc 0.1) it was 29.8%; in series [14] (conc 1) it was 52.9%; in series [14] (conc 10), 75.1%; in series [14] (conc 100), 93.5%. Also, the “SI HepG-2” value in series [17] was found to be 0.33.

For `Cc1cc(C)n(-c2c[nH]nc2NC(=O)c2c(N)nc3c(c2-c2ccc(Cl)cc2)c(=O)n(C)c(=O)n3C)n1` [Compound 13, 7-Amino-5-(4-chlorophenyl)-N-(3,5-dimethyl-1′H-[1,4′-bipyrazol]-3′-yl)-1,3-dimethyl-2,4-dioxo-1,2,3,4-tetrahydropyrido[2,3-d]pyrimidine-6-carboxamide], the zone of inhibition at 100 µg/mL in series [2] was found to be 16.8 mm; in series [20] it was 14.5 ± 0.15 mm. Also, the “SI MCF-7” value in series [8] turned out to be 0.29. Further, the IC50 in series [8] was 36.1 ± 2.2 µM; in [11], 28.7 ± 1.9 µM; in [12], 28 to 36 µM; in series [17], 32.6 ± 2.1 µM. Also, the “MIC S. aureus ATCC25923” value in series [9] is listed as above 100 µg/mL. Further, the MIC in series [9] was above 100 µg/mL; in series [16], 50 µg/mL (≈ 96.2 µM); in series [18], 100 µg/mL (≈ 192 µM); in [19] it was above 100 µg/mL. Besides, the “SI HeLa” value in series [11] is on record as 0.37. In [13], the IC50 at 48 h is 10.7 ± 0.8 µM. Besides, the “SI HepG-2” value in series [17] stood at 0.32. Further, in series [19], the “MIC E. faecalis ATCC29212” value is recorded as above 100 µg/mL.

For the compound `CC1=NN(C(=S)NC(=O)c2c(N)nc3c(c2-c2ccc(Cl)cc2)c(=O)n(C)c(=O)n3C)C(=O)C1` [Compound 16, 7-Amino-5-(4-chlorophenyl)-1,3-dimethyl-N-(3-methyl-5-oxo-4,5-dihydro-1H-pyrazole-1-carbonothioyl)-2,4-dioxo-1,2,3,4-tetrahydropyrido[2,3-d]pyrimidine-6-carboxamide], the zone of inhibition at 100 µg/mL in series [2] was 17.6 mm; in series [21], 4.5 ± 0.1 mm; in series [15], 4 ± 0.6 mm; in [20], 18.5 ± 0.15 mm. Moreover, in series [8], the “SI MCF-7” value was determined as 1.34. Also, the IC50 in series [8] was 42.9 ± 2.5 µM; in [11] it was 34.8 ± 2.1 µM; in series [12], 35 to 65 µM; in series [17] it was 65.1 ± 3.4 µM. The MIC in [9] was found to be 100 µg/mL (≈ 200 µM); in [16] it was 50 µg/mL (≈ 100 µM); in series [19], 100 µg/mL (≈ 200 µM). Moreover, in series [11], the “SI HeLa” value is 1.65. In addition, in series [13], it took 57.6 ± 3.2 µM to reach half-maximal inhibition (IC50 at 48 h). Also, in series [17], the “SI HepG-2” value turned out to be 0.88.
